Measurements: patent US20260108546A1 (ELI LILLY AND COMPANY, priority 2024, published 2026)

Target: T1, hGIP-R (Homo sapiens, UniProt P48546)
T1 construct: expressed in transfected cells; host or cells: HEK-293 clonal cell lines
T1 sequence (P48546 22-466): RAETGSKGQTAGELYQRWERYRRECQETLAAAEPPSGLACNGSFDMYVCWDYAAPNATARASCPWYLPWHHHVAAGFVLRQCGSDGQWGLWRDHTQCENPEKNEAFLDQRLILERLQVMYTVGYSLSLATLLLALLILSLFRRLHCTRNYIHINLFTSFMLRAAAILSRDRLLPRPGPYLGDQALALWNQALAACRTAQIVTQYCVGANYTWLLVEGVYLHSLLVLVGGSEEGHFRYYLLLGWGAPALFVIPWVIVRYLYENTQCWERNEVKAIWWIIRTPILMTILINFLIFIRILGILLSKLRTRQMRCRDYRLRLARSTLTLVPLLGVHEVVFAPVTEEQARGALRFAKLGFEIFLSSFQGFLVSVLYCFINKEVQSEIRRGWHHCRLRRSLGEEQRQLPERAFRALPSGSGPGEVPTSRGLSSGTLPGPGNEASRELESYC
Assay: Functional hGIP-R Assay (cAMP formation, HTRF)
Assay type: cell-based
Conditions: for Emax: cAMP efficacy, percent of maximal response to GIP(1-42)OH, 37° C., 0.1% bovine casein, arithmetic mean ± SEM; for EC50: cAMP potency, HEK-293 cells expressing hGIP-R, incubated at 37° C. in the presence of 0.1% bovine casein, geometric mean, read-out: Human GIP-R EC50, nM (SEM, n)
In short: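 HEK-293 cells expressing hGIP-R were given a 20-point compound series in DMEM with 0.1% casein, 250 μM IBMX, 1% DMSO, 30 min at 37 °C. cAMP was read by HTRF against a standard curve, expressed as % of human GIP (1-42) OH maximum; EC50 and Emax came from four-parameter fits.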

Cn1cc(C[C@@H](NC(=O)[C@H]2C[C@@H]2c2ccc(-c3cnc4nn(C)cc4c3)cc2)C(=O)NC(C)(C)Cn2nc(C(F)(F)F)cc2-c2ccc(=O)[nH]c2)cn1 [Example 59, (1S,2S)-N-((R)-1-((2-Methyl-1-(5-(6-oxo-1,6-dihydropyridin-3-yl)-3-(trifluoromethyl)-1H-pyrazol-1-yl)propan-2-yl)amino)-3-(1-methyl-1H-pyrazol-4-yl)-1-oxopropan-2-yl)-2-(4-(2-methyl-2H-pyrazolo[3,4-b]pyridin-5-yl)phenyl) cyclopropane-1-carboxamide]
Emax: 122 ± 2.6% | EC50: 49.1 nM

Cc1cn2cc(-c3ccc([C@H]4C[C@@]45CCN([C@H](Cc4cnn(C(F)F)c4)C(=O)NC(C)(C)Cn4nc(C(F)(F)F)cc4-c4cc(F)c(=O)n(C)c4)C5=O)c(F)c3)cnc2n1 [Example 100, (2R)-3-(1-(Difluoromethyl)-1H-pyrazol-4-yl)-N-(1-(5-(5-fluoro-1-methyl-6-oxo-1,6-dihydropyridin-3-yl)-3-(trifluoromethyl)-1H-pyrazol-1-yl)-2-methylpropan-2-yl)-2-((1S,3R)-1-(2-fluoro-4-(2-methylimidazo[1,2-a]pyrimidin-6-yl)phenyl)-4-oxo-5-azaspiro[2.4]heptan-5-yl)propanamide]
Emax: 70.9 ± 1.67% | EC50: 3.47 nM

Cn1cc(-c2cc(C(F)(F)F)nn2CC(C)(C)NC(=O)[C@@H](Cc2cnn(C(F)F)c2)NC(=O)[C@H]2C[C@@H]2c2nc3c(Cl)nn(C)c3cc2C#N)cc(F)c1=O [Example 155, (1S,2S)-2-(3-Chloro-6-cyano-1-methyl-1H-pyrazolo[4,3-b]pyridin-5-yl)-N—((R)-3-(1-(difluoromethyl)-1H-pyrazol-4-yl)-1-((1-(5-(5-fluoro-1-methyl-6-oxo-1,6-dihydropyridin-3-yl)-3-(trifluoromethyl)-1H-pyrazol-1-yl)-2-methylpropan-2-yl)amino)-1-oxopropan-2-yl)cyclopropane-1-carboxamide]
Emax: 78.1 ± 4.92% | EC50: 118 nM

Cn1cc(C[C@@H](NC(=O)[C@H]2C[C@@H]2c2ccc(-c3cnc4nn(C)cc4c3)cc2)C(=O)NC(C)(C)Cn2nc(C(F)(F)F)cc2-c2ccnc(C(C)(C)O)c2)cn1 [Example 18, (1S,2S)-N-((R)-1-((1-(5-(2-(2-Hydroxypropan-2-yl)pyridin-4-yl)-3-(trifluoromethyl)-1H-pyrazol-1-yl)-2-methylpropan-2-yl)amino)-3-(1-methyl-1H-pyrazol-4-yl)-1-oxopropan-2-yl)-2-(4-(2-methyl-2H-pyrazolo [3,4-b]pyridin-5-yl)phenyl) cyclopropane-1-carboxamide]
Emax: 116 ± 13% | EC50: 12 nM

[2H]C([2H])([2H])N(C(=O)[C@H]1C[C@@H]1c1ccc(-c2cnc3nn(C)cc3c2)nc1C(F)(F)F)[C@H](Cc1cnn(C(F)F)c1)C(=O)NC(C)(C)Cn1nc(C(F)(F)F)cc1-c1cc(F)c(=O)n(C)c1 [Example 136, (1S,2S)-N—((R)-3-(1-(Difluoromethyl)-1H-pyrazol-4-yl)-1-((1-(5-(5-fluoro-1-methyl-6-oxo-1,6-dihydropyridin-3-yl)-3-(trifluoromethyl)-1H-pyrazol-1-yl)-2-methylpropan-2-yl)amino)-1-oxopropan-2-yl)-N-(methyl-d3)-2-(6-(2-methyl-2H-pyrazolo[3,4-b]pyridin-5-yl)-2-(trifluoromethyl)pyridin-3-yl)cyclopropane-1-carboxamide]
Emax: 74.6 ± 6.02% | EC50: 10.8 nM

Cn1cc(C[C@@H](NC(=O)[C@H]2C[C@@H]2c2ccc(-c3cnc4nn(C)cc4c3)cc2)C(=O)NC(C)(C)Cn2nc(C(F)(F)F)cc2-n2nccn2)cn1 (single isomer, unassigned) [Example 13]
Emax: 112 ± 0.275% | EC50: 49.7 nM

[2H]C([2H])([2H])n1cc(-c2cc(C(F)(F)F)nn2CC(C)(C)NC(=O)[C@@H](Cc2cnn(C(F)F)c2)N2CC[C@@]3(C[C@@H]3c3ccc(-c4cnc5nn(C)cc5c4)cc3)C2=O)ccc1=O [Example 120, (R)-3-(1-(Difluoromethyl)-1H-pyrazol-4-yl)-N-(2-methyl-1-(5-(1-(methyl-d3)-6-oxo-1,6-dihydropyridin-3-yl)-3-(trifluoromethyl)-1H-pyrazol-1-yl)propan-2-yl)-2-((1R,3R)-1-(4-(2-methyl-2H-pyrazolo[3,4-b]pyridin-5-yl)phenyl)-4-oxo-5-azaspiro[2.4]heptan-5-yl)propanamide]
Emax: 72.4 ± 2.16% | EC50: 33.5 nM

CN(C(=O)[C@H]1C[C@@H]1c1ccc(-c2cnc3nn(C)cc3c2)cc1)[C@H](Cc1cnn(C)c1)C(=O)NC(C)(C)Cn1nc(C(F)(F)F)cc1-c1ccc[nH]c1=O [Example 32, (1S,2S)-N-Methyl-N-((R)-1-((2-methyl-1-(5-(2-oxo-1,2-dihydropyridin-3-yl)-3-(trifluoromethyl)-1H-pyrazol-1-yl)propan-2-yl)amino)-3-(1-methyl-1H-pyrazol-4-yl)-1-oxopropan-2-yl)-2-(4-(2-methyl-2H-pyrazolo[3,4-b]pyridin-5-yl)phenyl) cyclopropane-1-carboxamide]
Emax: 119% | EC50: 93.5 nM

Cn1cc(C[C@@H](NC(=O)[C@H]2C[C@@H]2c2ccc(-c3cnc4nn(C)cc4c3)cc2)C(=O)NC(C)(C)Cn2nc(C(F)(F)F)cc2-c2cn[nH]c2)cn1 [Example 41, (1S,2S)-N—((R)-1-((2-Methyl-1-(5-(trifluoromethyl)-1′H,2H-[3,4′-bipyrazol]-2-yl)propan-2-yl)amino)-3-(1-methyl-1H-pyrazol-4-yl)-1-oxopropan-2-yl)-2-(4-(2-methyl-2H-pyrazolo[3,4-b]pyridin-5-yl)phenyl)cyclopropane-1-carboxamide]
Emax: 111 ± 4.76% | EC50: 20.2 nM

COCc1cn2cc(-c3ccc([C@H]4C[C@@H]4C(=O)N(C)[C@H](Cc4cnn(C)c4)C(=O)NC(C)(C)Cn4nc(C(F)(F)F)cc4-c4ccc(=O)n(C)c4)cc3)cnc2n1 [Example 90, (1S,2S)-2-(4-(2-(Methoxymethyl)imidazo[1,2-a]pyrimidin-6-yl)phenyl)-N-methyl-N-((R)-1-((2-methyl-1-(5-(1-methyl-6-oxo-1,6-dihydropyridin-3-yl)-3-(trifluoromethyl)-1H-pyrazol-1-yl)propan-2-yl)amino)-3-(1-methyl-1H-pyrazol-4-yl)-1-oxopropan-2-yl)cyclopropane-1-carboxamide]
Emax: 120% | EC50: 45.5 nM

Cn1cc2cc(-c3ccc([C@H]4C[C@@]45CCN([C@H](Cc4cnn(C(F)F)c4)C(=O)NC4(Cn6nc(C(F)(F)F)cc6-c6cc(F)c(=O)n(C)c6)CC4)C5=O)c(F)c3)cnc2n1 (single isomer, unassigned; isomer 1) [Example 119]
Emax: 79.5 ± 5.3% | EC50: 144 nM

CN1CC2C=C(c3ccc([C@H]4C[C@@]45CCN([C@H](Cc4cnn(C(F)F)c4)C(=O)NC(C)(C)Cn4nc(C(F)(F)F)cc4-c4cnc(C(F)(F)F)nc4)C5=O)cc3)C=NC2C1=O (single isomer, unassigned; isomer 1) [Example 103]
Emax: 73.3 ± 6.2% | EC50: 99.6 nM

CN(C(=O)[C@H]1C[C@@H]1c1ccc(-c2cnc3nn(C(F)F)cc3c2)cc1)[C@H](Cc1cnn(C)c1)C(=O)NC(C)(C)Cn1nc(C(F)(F)F)cc1-c1ccc(=O)n(C)c1 [Example 88, (1S,2S)-2-(4-(2-(Difluoromethyl)-2H-pyrazolo[3,4-b]pyridin-5-yl)phenyl)-N-methyl-N-((R)-1-((2-methyl-1-(5-(1-methyl-6-oxo-1,6-dihydropyridin-3-yl)-3-(trifluoromethyl)-1H-pyrazol-1-yl)propan-2-yl)amino)-3-(1-methyl-1H-pyrazol-4-yl)-1-oxopropan-2-yl)cyclopropane-1-carboxamide]
Emax: 116% | EC50: 89 nM
